According to PMC5705205 (Bioorganic & medicinal chemistry letters, 2017):

Tests used:
[1] = test system: quinone reductase 1 (QR1); assay: QR1 induction assay; format: cell-based; details: for fold induction at 50 µM: read-out: QR1 IR (induction ratio), induction ratio at a concentration of 50 μM
aromatase = target: T1, aromatase (Homo sapiens, UniProt P11511); assay: Aromatase inhibition assay; format: biochemical
T1 sequence (P11511 1-503): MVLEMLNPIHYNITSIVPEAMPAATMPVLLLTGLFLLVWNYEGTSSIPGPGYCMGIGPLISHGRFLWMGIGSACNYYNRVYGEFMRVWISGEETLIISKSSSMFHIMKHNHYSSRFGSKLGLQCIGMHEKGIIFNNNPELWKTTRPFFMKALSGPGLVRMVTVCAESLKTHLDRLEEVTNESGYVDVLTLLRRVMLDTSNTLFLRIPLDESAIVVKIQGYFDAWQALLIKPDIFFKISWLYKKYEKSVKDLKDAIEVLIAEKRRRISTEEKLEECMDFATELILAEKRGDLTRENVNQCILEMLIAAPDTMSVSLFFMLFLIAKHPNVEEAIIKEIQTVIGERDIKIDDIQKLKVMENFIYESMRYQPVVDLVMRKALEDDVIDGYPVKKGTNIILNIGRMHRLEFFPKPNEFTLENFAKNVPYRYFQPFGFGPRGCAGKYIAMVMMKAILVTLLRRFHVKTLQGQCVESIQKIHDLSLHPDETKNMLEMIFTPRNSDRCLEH

O=c1cc(-c2ccc(Br)cc2)oc2ccccc12 [4′-bromoflavone, reference compound]
EC (2-fold activity) ([1]; read-out: QR1 CD (concentration that double the activity)): 0.01 µM

c1ccc(-c2cc3ccccc3[nH]2)cc1 [Compound 1, 2-phenylindole]
Anti-aromatase activity (in words) (aromatase): only slight activity | QR1 induction activity (in words) [1]: very good QR1 induction activity

c1ccc(C2Cc3ccccc3N2)cc1 (stereo not shown) [Compound 1f, 2-phenylindoline]
Anti-aromatase activity (in words) (aromatase): did not show significant activity | QR1 induction activity (in words) [1]: weak activity

N#Cc1c(-c2ccccc2)[nH]c2ccccc12 [Compound 2d, 3-cyano-2-phenylindole]
IC50 (aromatase): 1610 ± 200 nM | inhibition at 50 µM (aromatase; read-out: Aromatase % inhibition): 88 ± 1.07% | fold induction at 50 µM [1]: 0.55 ± 0.64

COc1cc(OC)cc(-c2cc3ccccc3[nH]2)c1 [Compound 7]
Fold increase in QR1 induction activity over 1 ([1]; relative to 1): 2 fold

Clc1ccc(-c2cc3ccccc3[nH]2)cc1Cl [Compound 8]
QR1 induction activity (in words) [1]: inactive

Clc1ccccc1-c1cc2ccccc2[nH]1 [Compound 9]
fold induction at 50 µM [1]: < 1.5

Fc1cc(F)cc(-c2cc3ccccc3[nH]2)c1 [Compound 15]
QR1 induction activity (in words) [1]: inactive

CCCCCc1ccc(-c2cc3ccccc3[nH]2)cc1 [Compound 17]
QR1 induction activity (in words) [1]: inactive

Nc1ccc(-c2cc3ccccc3[nH]2)cc1 [Compound 18]
QR1 induction activity (in words) [1]: inactive

CN(C)c1ccc(-c2cc3ccccc3[nH]2)cc1 [Compound 20]
QR1 induction activity (in words) [1]: inactive

c1cncc(-c2cc3ccccc3[nH]2)c1 [Compound 21]
QR1 induction activity (in words) [1]: inactive

c1ccc2[nH]c(-c3ccsc3)cc2c1 [Compound 22]
Anti-aromatase activity (in words) (aromatase): did not show encouraging activity | QR1 induction activity (in words) [1]: inactive

COc1ccc2ccc(-c3cc4ccccc4[nH]3)cc2c1 [Compound 23]
Anti-aromatase activity (in words) (aromatase): did not show encouraging activity | QR1 induction activity (in words) [1]: inactive

Cn1c(-c2ccccc2)cc2cc([N+](=O)[O-])ccc21 [Compound 24a]
Fold increase in aromatase activity over free NH derivative 24 (aromatase; relative to 24): 2 fold

Cc1ccccc1-c1cc2cc([N+](=O)[O-])ccc2[nH]1 [Compound 25]
fold induction at 50 µM [1]: < 1.5

O=[N+]([O-])c1ccc2[nH]c(-c3ccc(Cl)c(Cl)c3)cc2c1 [Compound 31]
Anti-aromatase activity (in words) (aromatase): totally destroyed aromatase activity

Cn1c(-c2ccc(Cl)c(Cl)c2)cc2cc([N+](=O)[O-])ccc21 [Compound 31a]
Anti-aromatase activity (in words) (aromatase): not active

c1ccc(-c2nc3ccccc3[nH]2)cc1 [Compound 34, 2-phenylbenzimidazole, reference compound]
Anti-aromatase activity (in words) (aromatase): not active
